Measurements from patent US12077503B2, “Substituted cyclic amides and their use as herbicides” (FMC CORPORATION, priority 2015, dated 2024).
Read-outs that look alike come from different tables or passages of the source.

How the values were obtained:
Assay in all cases: Test A postemergence
Type in all cases: in vivo
[1] = tested on: ragweed (common ragweed, Ambrosia elatior); conditions: Ambrosia artemisiifolia, post-emergence, 240 h; for pest or weed control at 125 g/ha: 125 g ai/ha; for pest or weed control at 500 g/ha: 500 g ai/ha
How it was run: (§1)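 Greenhouse, ~10 d after spray; visual injury vs untreated controls, 0 = no effect, 100 = complete control. Preemergence: directed soil spray over planted seeds. Postemergence: plants 2–10 cm, 1–2 leaf stage. Loam/sand blend. Compound in non-phytotoxic solvent with surfactant.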

[2] = tested on: barnyardgrass (Echinochloa crus-galli); conditions: Echinochloa crus-galli, post-emergence, 240 h; for pest or weed control at 125 g/ha: 125 g ai/ha; for pest or weed control at 500 g/ha: 500 g ai/ha
How it was run: as §1

[3] = tested on: Galium (catchweed bedstraw, Galium aparine); conditions: Galium, post-emergence, 240 h; for pest or weed control at 125 g/ha: 125 g ai/ha; for pest or weed control at 500 g/ha: 500 g ai/ha
How it was run: as §1

Kochia (Kochia scoparia) = conditions: Bassia scoparia, post-emergence, 240 h; for pest or weed control at 125 g/ha: 125 g ai/ha; for pest or weed control at 500 g/ha: 500 g ai/ha
How it was run: as §1

corn (Zea mays) = conditions: Zea mays, post-emergence, 240 h; for plant injury at 125 g/ha / Corn plant response rating (crop injury, 0 = no effect, 100 = complete kill) at 125 g/ha: 125 g ai/ha; for plant injury at 125 g/ha: read-out: Corn plant response rating (0 to 100 scale); for plant injury at 500 g/ha / Corn plant response rating (crop injury, 0 = no effect, 100 = complete kill) at 500 g/ha: 500 g ai/ha; for plant injury at 500 g/ha: 0 to 100 scale, 0 is no effect, 100 is complete control, read-out: Corn plant response rating; for Corn plant response rating (crop injury, 0 = no effect, 100 = complete kill) at 125 g/ha: visual injury after approximately 10 d; for Corn plant response rating (crop injury, 0 = no effect, 100 = complete kill) at 500 g/ha: visual injury, approx. 10 d
How it was run: as §1

[4] = postemergence, visual injury vs untreated controls after approx. 10 d, 0 = no effect, 100 = complete control, read-out: Ragweed plant response rating (0 to 100 scale)
[5] = postemergence, 0 to 100 scale, 0 is no effect, 100 is complete control, read-out: Ragweed plant response rating
[6] = postemergence, visual injury vs untreated controls after approx. 10 d, 0 = no effect, 100 = complete control, read-out: Barnyardgrass plant response rating (0 to 100 scale)
[7] = postemergence, 0 to 100 scale, 0 is no effect, 100 is complete control, read-out: Barnyardgrass plant response rating
[8] = postemergence, visual injury vs untreated controls after approx. 10 d, 0 = no effect, 100 = complete control, read-out: Galium plant response rating (0 to 100 scale)
[9] = postemergence, 0 to 100 scale, 0 is no effect, 100 is complete control, read-out: Galium plant response rating
[10] = postemergence, visual injury vs untreated controls after approx. 10 d, 0 = no effect, 100 = complete control, read-out: Kochia plant response rating (0 to 100 scale)
[11] = postemergence, 0 to 100 scale, 0 is no effect, 100 is complete control, read-out: Kochia plant response rating
[12] = postemergence, visual injury vs untreated controls after approx. 10 d, 0 = no effect, 100 = complete control
[13] = postemergence, visual injury after approximately 10 d, 0 to 100 scale (0 no effect, 100 complete control), read-out: Plant response rating, Ragweed
[14] = postemergence, visual injury after approximately 10 d, 0 to 100 scale (0 no effect, 100 complete control), read-out: Plant response rating, Barnyardgrass
[15] = postemergence, visual injury after approximately 10 d, 0 to 100 scale (0 no effect, 100 complete control), read-out: Plant response rating, Galium
[16] = postemergence, visual injury after approximately 10 d, 0 to 100 scale (0 no effect, 100 complete control), read-out: Plant response rating, Kochia
[17] = postemergence, 0 to 100 scale (0 no effect, 100 complete control)
[18] = Postemergence, visual injury, 0 to 100 scale (0 no effect, 100 complete control), approx. 10 d, read-out: Plant response rating, Ragweed
[19] = Postemergence, visual injury, 0 to 100 scale (0 no effect, 100 complete control), approx. 10 d, read-out: Plant response rating, Barnyardgrass
[20] = Postemergence, visual injury, 0 to 100 scale (0 no effect, 100 complete control), approx. 10 d, read-out: Plant response rating, Galium
[21] = Postemergence, visual injury, 0 to 100 scale (0 no effect, 100 complete control), approx. 10 d, read-out: Plant response rating, Kochia
[22] = Postemergence, 0 to 100 scale (0 no effect, 100 complete control)

| SMILES | pest or weed control at 125 g/ha [1, 4] | pest or weed control at 500 g/ha [1, 5] | pest or weed control at 125 g/ha [2, 6] | pest or weed control at 500 g/ha [2, 7] | pest or weed control at 125 g/ha [3, 8] | pest or weed control at 500 g/ha [3, 9] | pest or weed control at 125 g/ha (Kochia (Kochia scoparia); [10]) | pest or weed control at 500 g/ha (Kochia (Kochia scoparia); [11]) | plant injury at 125 g/ha (corn (Zea mays); [12]) | plant injury at 500 g/ha (corn (Zea mays); postemergence) | pest or weed control at 125 g/ha [1, 13] | pest or weed control at 125 g/ha [2, 14] | pest or weed control at 125 g/ha [3, 15] | pest or weed control at 125 g/ha (Kochia (Kochia scoparia); [16]) | Corn plant response rating (crop injury, 0 = no effect, 100 = complete kill) at 125 g/ha (corn (Zea mays); [17]) | other results |
| --- | --- | --- | --- | --- | --- | --- | --- | --- | --- | --- | --- | --- | --- | --- | --- | --- |
| N#Cc1ccc([C@H]2CNC(=O)[C@@H]2C(=O)Nc2cccc(F)c2F)cc1 [Compound 1206] | 0% | 0% | 70% | 100% | 30% | 50% | 50% | 50% | 0% | 0% |  |  |  |  |  |  |
| CN1C[C@H](c2ccc(C(F)(F)F)cc2)[C@@H](C(=O)Nc2ccccc2C2CC2)C1=O [Compound 747] |  |  |  |  |  |  |  |  |  |  | 0% | 40% | 60% | 20% | 0% |  |
| O=C(Nc1cccc(Cl)c1F)[C@H]1C(=O)N(C2CC2)CC[C@@H]1c1cccc(C(F)(F)F)c1 [Compound 926] |  |  |  |  |  |  |  |  |  |  |  |  |  |  |  | pest or weed control at 125 g/ha ([1]; Postemergence, visual injury after approximately 10 d, 0 to 100 scale where 0 is no effect and 100 is complete control, read-out: Plant response rating, Ragweed): 0%; pest or weed control at 125 g/ha ([2]; Postemergence, visual injury after approximately 10 d, 0 to 100 scale where 0 is no effect and 100 is complete control, read-out: Plant response rating, Barnyardgrass): 40%; pest or weed control at 125 g/ha ([3]; Postemergence, visual injury after approximately 10 d, 0 to 100 scale where 0 is no effect and 100 is complete control, read-out: Plant response rating, Galium): 0%; pest or weed control at 125 g/ha (Kochia (Kochia scoparia); Postemergence, visual injury after approximately 10 d, 0 to 100 scale where 0 is no effect and 100 is complete control, read-out: Plant response rating, Kochia): 0%; Corn plant response rating (crop injury, 0 = no effect, 100 = complete kill) at 125 g/ha (corn (Zea mays); Postemergence, 0 to 100 scale where 0 is no effect and 100 is complete control): 0% |
| O=C1NC[C@H](c2cscn2)[C@H]1C(=O)Nc1ccccc1F [Compound 752] |  |  |  |  |  |  |  |  |  |  | 20% | 60% | 70% | 40% | 0% |  |
| CCc1ccc([C@H]2CNC(=S)[C@@H]2C(=O)Nc2cccc(F)c2F)cc1 [Compound 762] |  |  |  |  |  |  |  |  |  |  | 0% | 90% | 0% | 0% | 0% |  |
| O=C1NC[C@H](c2ccc(C(F)(F)F)cc2)[C@H]1C(=O)Nc1ccccc1C1CC1 [Compound 746] |  |  |  |  |  |  |  |  |  |  | 0% | 20% | 50% | 0% | 0% |  |
| O=C1NC[C@H](c2cncs2)[C@H]1C(=O)Nc1ccccc1F [Compound 1335] |  |  |  |  |  |  |  |  |  |  |  |  |  |  |  | pest or weed control at 125 g/ha ([1]; Postemergence, visual rating about 10 d after treatment, read-out: Ragweed plant response rating (0 to 100 scale)): 0%; pest or weed control at 500 g/ha [1, 18]: 0%; pest or weed control at 125 g/ha ([2]; Postemergence, visual rating about 10 d after treatment, read-out: Barnyardgrass plant response rating (0 to 100 scale, 0 no effect, 100 complete control)): 0%; pest or weed control at 500 g/ha [2, 19]: 0%; pest or weed control at 125 g/ha ([3]; Postemergence, visual rating about 10 d after treatment, read-out: Galium plant response rating (0 to 100 scale)): 0%; pest or weed control at 500 g/ha [3, 20]: 0%; pest or weed control at 125 g/ha (Kochia (Kochia scoparia); Postemergence, visual rating about 10 d after treatment, read-out: Kochia plant response rating (0 to 100 scale)): 0%; pest or weed control at 500 g/ha (Kochia (Kochia scoparia); [21]): 0%; plant injury at 125 g/ha (corn (Zea mays); Postemergence, visual rating about 10 d after treatment): 0%; Corn plant response rating (crop injury, 0 = no effect, 100 = complete kill) at 500 g/ha (corn (Zea mays); [22]): 0% |
| O=C1NC[C@H](c2ccc(C(F)(F)F)cc2)C1C(=O)Nc1c(F)cccc1CO (stereo partly shown) [Compound 1243] | 0% | 0% | 0% | 0% | 0% | 0% | 0% | 0% | 0% | 0% |  |  |  |  |  |  |
| CN1CC[C@H](c2ccc(C(F)(F)F)cc2)[C@@H](C(=O)Nc2ccc(F)c(F)c2F)C1=O [Compound 1226] | 0% | 50% | 100% | 100% | 80% | 80% | 60% | 60% | 30% | 70% |  |  |  |  |  |  |
| N#Cc1cc([C@H]2CNC(=O)[C@@H]2C(=O)Nc2ccccc2F)ccc1F [Compound 1199] | 0% | 0% | 70% | 100% | 20% | 40% | 20% | 40% | 0% | 0% |  |  |  |  |  |  |
| Cc1cc([C@H]2CN(C)C(=O)[C@@H]2C(=O)Nc2ccccc2F)no1 [Compound 1194] | 0% | 0% | 0% | 20% | 0% | 0% | 0% | 0% | 0% | 0% |  |  |  |  |  |  |
| CN1C[C@H](c2ccc(C(F)(F)F)cc2)[C@@H](C(=O)Nc2ccccc2)C1=O [Compound 1253] | 0% |  | 90% |  | 50% |  | 60% |  | 0% |  |  |  |  |  |  | pest or weed control at 500 g/ha [1, 18]: 0%; pest or weed control at 500 g/ha [2, 19]: 100%; pest or weed control at 500 g/ha [3, 20]: 60%; pest or weed control at 500 g/ha (Kochia (Kochia scoparia); [21]): 70%; Corn plant response rating (crop injury, 0 = no effect, 100 = complete kill) at 500 g/ha (corn (Zea mays); [22]): 70% |
| Cc1cc([C@H]2CNC(=O)[C@@H]2C(=O)Nc2ccc(F)cc2F)ccc1Cl [Compound 791] |  |  |  |  |  |  |  |  |  |  | 0% | 60% | 60% | 20% | 0% |  |
